Measurements: US12215173B2, “Kappa opioid receptor peptide amide ligands” (priority 2019, dated 2025)
pEC50, pIC50: −log10 of the molar value. Where two headings read alike, the source gives them in different places. Square brackets hold non-standard residues; d marks the D form. Peptide text beside a SMILES is read from it. * marks the point of attachment. Piperidin1yl(4-NH2,4-CO2Me) = COC(=O)C1(N)CCN(*)CC1; Pyrrolidinyl(3-NH2,3-CO2Me) = COC(=O)C1(N)CCN(*)C1; Piperidin1yl(4-NH2,4-COOH) = NC1(C(=O)O)CCN(*)CC1; dAla(cPr) = N[C@H](CC1CC1)C(=O)O

Columns and labels:
[1] = molecular target: recombinant human kappa (KOR) opioid receptor (Homo sapiens (Human), UniProt P41145); assay: biochemical; format: binding; conditions: HEK293 cell membranes, 0.5 nM [3H]diprenorphine
[2] = molecular target: recombinant human mu (MOR) opioid receptor (Homo sapiens (Human), UniProt P35372); assay: Opioid receptor radioligand binding assay, MOR
[3] = molecular target: recombinant human delta (DOR) opioid receptor (Homo sapiens (Human), UniProt P41143); assay: Opioid receptor radioligand binding assay, DOR
[4] = molecular target: Opioid Kappa Receptor (recombinant human, HEK293 cells) (Homo sapiens (Human), UniProt P41145); assay: cell-based; conditions: read-out: EC50
[5] = HEK293 cell membranes, 0.5 nM [3H]DADLE, read-out: DOR, IC50
[6] = HEK293 cell membranes, 0.5 nM [3H]DAMGO, read-out: MOR, IC50

Chain of recombinant human delta (DOR) opioid receptor (P41143 whole entry, looked up): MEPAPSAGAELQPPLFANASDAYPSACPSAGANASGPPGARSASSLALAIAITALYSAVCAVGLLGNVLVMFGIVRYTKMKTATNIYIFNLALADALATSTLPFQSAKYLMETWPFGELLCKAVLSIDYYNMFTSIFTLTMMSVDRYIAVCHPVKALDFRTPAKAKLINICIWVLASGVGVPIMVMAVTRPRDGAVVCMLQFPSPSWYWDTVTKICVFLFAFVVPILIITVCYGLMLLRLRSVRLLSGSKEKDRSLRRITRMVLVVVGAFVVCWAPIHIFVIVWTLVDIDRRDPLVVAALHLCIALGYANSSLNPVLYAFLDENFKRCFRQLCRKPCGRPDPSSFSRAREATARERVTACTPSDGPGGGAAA

| Compound | pIC50 [1] | pIC50 [2] | pIC50 [3] | pEC50 [4] | pIC50 ([2]; read-out: MOR, IC50) | pIC50 [3, 5] | pIC50 [2, 6] |
| --- | --- | --- | --- | --- | --- | --- | --- |
| CC(C)C[C@@H](NC(=O)[C@@H](Cc1ccccc1)NC(=O)[C@H](N)Cc1ccccc1)C(=O)N[C@H](CCCCN)C(=O)NCC(=O)N1CCC(N)(C(=O)O)CC1 [Compound 67] (H-[dF][dF][dL][dK]G-{Piperidin1yl(4-NH2,4-COOH)}) | 7.60 | 5.29 | < 5.00 | 7.29 |  |  |  |
| CC(C)C[C@@H](NC(=O)[C@@H](Cc1ccccc1)NC(=O)[C@H](N)Cc1ccccc1)C(=O)N[C@H](CCCCN)C(=O)N1CCC2(CC1)NC(=O)NC2=O [Compound 71] | 9.80 |  |  | 8.27 | < 5.00 | < 5.00 |  |
| COC(=O)C1(N)CCN(C(=O)[C@@H](CCCCN)NC(=O)[C@@H](CC2CC2)NC(=O)[C@@H](Cc2ccccc2)NC(=O)[C@H](N)Cc2ccccc2)CC1 [Compound 112] (H-[dF][dF][dAla(cPr)][dK]-{Piperidin1yl(4-NH2,4-CO2Me)}) | 9.00 |  |  | 8.23 |  | < 5.00 | 7.82 |
| COC(=O)C1(N)CCN(C(=O)[C@@H](CCCCN)NC(=O)[C@@H](CC2CC2)NC(=O)[C@@H](Cc2ccccc2)NC(=O)[C@H](N)Cc2ccccc2)C1 (stereo partly drawn) [Compound 118] (H-[dF][dF][dAla(cPr)][dK]-{Pyrrolidinyl(3-NH2,3-CO2Me)}) | 9.48 |  |  | 8.03 |  | < 5.00 | < 5.00 |
| COC(=O)C1(N)CCN(C(=O)[C@@H](CCCNC(=N)N)NC(=O)[C@@H](CC2CC2)NC(=O)[C@@H](Cc2ccccc2)NC(=O)[C@H](N)Cc2ccccc2)CC1 [Compound 126] (H-[dF][dF][dAla(cPr)][dR]-{Piperidin1yl(4-NH2,4-CO2Me)}) | 9.44 |  |  | 8.17 |  | < 5.00 | 5.52 |
| COC(=O)C1(N)CCN(C(=O)[C@@H](CCCNC(=N)N)NC(=O)[C@@H](CC2CC2)NC(=O)[C@@H](Cc2ccccc2)NC(=O)[C@H](N)Cc2ccccc2)C1 (stereo partly drawn) [Compound 133] (H-[dF][dF][dAla(cPr)][dR]-{Pyrrolidinyl(3-NH2,3-CO2Me)}) | 8.89 |  |  | 8.02 |  | < 5.00 | < 5.00 |
